Experimental data reported in US12077503B2, “Substituted cyclic amides and their use as herbicides” (FMC CORPORATION, priority 2015, dated 2024).

Legend:
Test in all cases: Test C preemergence
Format in all cases: in vivo
[1] = system: corn (Zea mays); details: for Plant response rating, Corn: scale 0 to 100, 0 no effect, 100 complete control
Outline: (§1)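 Assessment: visual, 13–15 d after treatment, 0 (no effect) to 100 (complete control) relative to controls. Treatment: preemergence to seeds in loam-sand soil, or postemergence to 1- to 4-leaf plants in peat-based medium. Formulation: non-phytotoxic solvent mixture with surfactant.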

[2] = system: crabgrass, large (large crabgrass, Digitaria sanguinalis); details: for Plant response rating, Crabgrass, Large: scale 0 to 100, 0 no effect, 100 complete control
Outline: as §1

[3] = system: ragweed (common ragweed, Ambrosia elatior); details: for Plant response rating, Ragweed: scale 0 to 100, 0 no effect, 100 complete control
Outline: as §1

[4] = system: barnyardgrass (Echinochloa crus-galli); details: for Plant response rating, Barnyardgrass: scale 0 to 100, 0 no effect, 100 complete control
Outline: as §1

[5] = system: foxtail, giant (giant foxtail, Setaria faberii); details: for Plant response rating, Foxtail, Giant: scale 0 to 100, 0 no effect, 100 complete control
Outline: as §1

[6] = system: waterhemp (common waterhemp, Amaranthus rudis); details: for Plant response rating, Waterhemp: scale 0 to 100, 0 no effect, 100 complete control
Outline: as §1

[7] = system: Galium (catchweed bedstraw, Galium aparine); details: for Plant response rating, Galium: scale 0 to 100, 0 no effect, 100 complete control
Outline: as §1

[8] = system: soybean (Glycine max); details: for Plant response rating, Soybean: scale 0 to 100, 0 no effect, 100 complete control
Outline: as §1

[9] = system: pigweed (Amaranthus retroflexus); details: for Plant response rating, Pigweed: scale 0 to 100, 0 no effect, 100 complete control
Outline: as §1

[10] = system: wheat (winter wheat, Triticum aestivum); details: for Plant response rating, Wheat: scale 0 to 100, 0 no effect, 100 complete control
Outline: as §1

[11] = system: lambsquarters (Chenopodium album); details: for Plant response rating, Lambsquarters: scale 0 to 100, 0 no effect, 100 complete control
Outline: as §1

[12] = system: oilseed rape (Brassica napus); details: for Plant response rating, Oilseed Rape: scale 0 to 100, 0 no effect, 100 complete control
Outline: as §1

[13] = system: johnsongrass (Sorghum halepense); details: for Plant response rating, Johnsongrass: scale 0 to 100, 0 no effect, 100 complete control
Outline: as §1

[14] = system: morningglory (Ipomoea coccinea); details: for Plant response rating, Morningglory: scale 0 to 100, 0 no effect, 100 complete control
Outline: as §1

[15] = system: ryegrass, Italian (Italian ryegrass, Lolium multiflorum); details: for Plant response rating, Ryegrass, Italian: scale 0 to 100, 0 no effect, 100 complete control
Outline: as §1

[16] = system: nutsedge, yellow (yellow nutsedge, Cyperus esculentus); details: for Plant response rating, Nutsedge, Yellow: scale 0 to 100, 0 no effect, 100 complete control
Outline: as §1

[17] = system: velvetleaf (Abutilon theophrasti); details: for Plant response rating, Velvetleaf: scale 0 to 100, 0 no effect, 100 complete control
Outline: as §1

[18] = 31 g ai/ha, 0 is no effect, 100 is complete control

## CN1CC(c2cccc(OC(F)F)c2)C(C(=O)Nc2ccccc2F)C1=O (centres unmarked) [Compound 618]
[1]; [18]
  Plant response rating (scale of 0 to 100), Corn: 30
[1]; 62 g ai/ha
  Plant response rating, Corn: 50
[1]; 125 g ai/ha
  Plant response rating, Corn: 75
[1]; 250 g ai/ha
  Plant response rating, Corn: 85
[2]; [18]
  Plant response rating (scale of 0 to 100), Crabgrass, Large: 100
[2]; 62 g ai/ha
  Plant response rating, Crabgrass, Large: 100
[2]; 125 g ai/ha
  Plant response rating, Crabgrass, Large: 100
[2]; 250 g ai/ha
  Plant response rating, Crabgrass, Large: 100
[3]; [18]
  Plant response rating (scale of 0 to 100), Ragweed: 40
[3]; 62 g ai/ha
  Plant response rating, Ragweed: 40
[3]; 125 g ai/ha
  Plant response rating, Ragweed: 65
[3]; 250 g ai/ha
  Plant response rating, Ragweed: 80
[4]; [18]
  Plant response rating (scale of 0 to 100), Barnyardgrass: 95
[4]; 62 g ai/ha
  Plant response rating, Barnyardgrass: 95
[4]; 125 g ai/ha
  Plant response rating, Barnyardgrass: 95
[4]; 250 g ai/ha
  Plant response rating, Barnyardgrass: 98
[5]; [18]
  Plant response rating (scale of 0 to 100), Foxtail, Giant: 90
[5]; 62 g ai/ha
  Plant response rating, Foxtail, Giant: 90
[5]; 125 g ai/ha
  Plant response rating, Foxtail, Giant: 90
[5]; 250 g ai/ha
  Plant response rating, Foxtail, Giant: 95
[6]; [18]
  Plant response rating (scale of 0 to 100), Waterhemp: 60
[6]; 62 g ai/ha
  Plant response rating, Waterhemp: 60
[6]; 125 g ai/ha
  Plant response rating, Waterhemp: 65
[6]; 250 g ai/ha
  Plant response rating, Waterhemp: 85
[7]; [18]
  Plant response rating (scale of 0 to 100), Galium: 0
[7]; 62 g ai/ha
  Plant response rating, Galium: 0
[7]; 125 g ai/ha
  Plant response rating, Galium: 85
[7]; 250 g ai/ha
  Plant response rating, Galium: 90
[8]; [18]
  Plant response rating (scale of 0 to 100), Soybean: 0
[8]; 62 g ai/ha
  Plant response rating, Soybean: 10
[8]; 125 g ai/ha
  Plant response rating, Soybean: 0
[8]; 250 g ai/ha
  Plant response rating, Soybean: 0
[9]; [18]
  Plant response rating (scale of 0 to 100), Pigweed: 40
[9]; 62 g ai/ha
  Plant response rating, Pigweed: 60
[9]; 125 g ai/ha
  Plant response rating, Pigweed: 60
[9]; 250 g ai/ha
  Plant response rating, Pigweed: 75
[10]; [18]
  Plant response rating (scale of 0 to 100), Wheat: 20
[10]; 62 g ai/ha
  Plant response rating, Wheat: 30
[10]; 125 g ai/ha
  Plant response rating, Wheat: 75
[10]; 250 g ai/ha
  Plant response rating, Wheat: 80
[11]; [18]
  Plant response rating (scale of 0 to 100), Lambsquarters: 50
[11]; 62 g ai/ha
  Plant response rating, Lambsquarters: 50
[11]; 125 g ai/ha
  Plant response rating, Lambsquarters: 70
[11]; 250 g ai/ha
  Plant response rating, Lambsquarters: 75
[12]; [18]
  Plant response rating (scale of 0 to 100), Oilseed Rape: 60
[12]; 62 g ai/ha
  Plant response rating, Oilseed Rape: 85
[12]; 125 g ai/ha
  Plant response rating, Oilseed Rape: 90
[12]; 250 g ai/ha
  Plant response rating, Oilseed Rape: 90
[13]; [18]
  Plant response rating (scale of 0 to 100), Johnsongrass: 20
[13]; 62 g ai/ha
  Plant response rating, Johnsongrass: 60
[13]; 125 g ai/ha
  Plant response rating, Johnsongrass: 85
[13]; 250 g ai/ha
  Plant response rating, Johnsongrass: 85
[14]; [18]
  Plant response rating (scale of 0 to 100), Morningglory: 0
[14]; 62 g ai/ha
  Plant response rating, Morningglory: 0
[14]; 125 g ai/ha
  Plant response rating, Morningglory: 10
[14]; 250 g ai/ha
  Plant response rating, Morningglory: 5
[15]; [18]
  Plant response rating (scale of 0 to 100), Ryegrass, Italian: 45
[15]; 62 g ai/ha
  Plant response rating, Ryegrass, Italian: 50
[15]; 125 g ai/ha
  Plant response rating, Ryegrass, Italian: 45
[15]; 250 g ai/ha
  Plant response rating, Ryegrass, Italian: 55
[16]; [18]
  Plant response rating (scale of 0 to 100), Nutsedge, Yellow: 0
[16]; 62 g ai/ha
  Plant response rating, Nutsedge, Yellow: 0
[16]; 125 g ai/ha
  Plant response rating, Nutsedge, Yellow: 0
[16]; 250 g ai/ha
  Plant response rating, Nutsedge, Yellow: 10
[17]; [18]
  Plant response rating (scale of 0 to 100), Velvetleaf: 0
[17]; 62 g ai/ha
  Plant response rating, Velvetleaf: 5
[17]; 125 g ai/ha
  Plant response rating, Velvetleaf: 55
[17]; 250 g ai/ha
  Plant response rating, Velvetleaf: 60

## CN1CC(c2ccc(C(F)(F)F)cc2)C(C(=S)Nc2ccccc2F)C1=O (centres unmarked) [Compound 450]
[1]; 31 g ai/ha
  Plant response rating, Corn: 5
[1]; 62 g ai/ha
  Plant response rating, Corn: 5
[1]; 125 g ai/ha
  Plant response rating, Corn: 20
[1]; 250 g ai/ha
  Plant response rating, Corn: 65
[2]; 31 g ai/ha
  Plant response rating, Crabgrass, Large: 90
[2]; 62 g ai/ha
  Plant response rating, Crabgrass, Large: 90
[2]; 125 g ai/ha
  Plant response rating, Crabgrass, Large: 90
[2]; 250 g ai/ha
  Plant response rating, Crabgrass, Large: 95
[3]; 31 g ai/ha
  Plant response rating, Ragweed: 5
[3]; 62 g ai/ha
  Plant response rating, Ragweed: 10
[3]; 125 g ai/ha
  Plant response rating, Ragweed: 20
[3]; 250 g ai/ha
  Plant response rating, Ragweed: 60
[4]; 31 g ai/ha
  Plant response rating, Barnyardgrass: 90
[4]; 62 g ai/ha
  Plant response rating, Barnyardgrass: 90
[4]; 125 g ai/ha
  Plant response rating, Barnyardgrass: 90
[4]; 250 g ai/ha
  Plant response rating, Barnyardgrass: 95
[5]; 31 g ai/ha
  Plant response rating, Foxtail, Giant: 90
[5]; 62 g ai/ha
  Plant response rating, Foxtail, Giant: 90
[5]; 125 g ai/ha
  Plant response rating, Foxtail, Giant: 90
[5]; 250 g ai/ha
  Plant response rating, Foxtail, Giant: 95
[6]; 62 g ai/ha
  Plant response rating, Waterhemp: 60
[6]; 125 g ai/ha
  Plant response rating, Waterhemp: 75
[6]; 250 g ai/ha
  Plant response rating, Waterhemp: 85
[7]; 31 g ai/ha
  Plant response rating, Galium: 50
[7]; 62 g ai/ha
  Plant response rating, Galium: 90
[7]; 125 g ai/ha
  Plant response rating, Galium: 90
[7]; 250 g ai/ha
  Plant response rating, Galium: 95
[8]; 62 g ai/ha
  Plant response rating, Soybean: 5
[8]; 125 g ai/ha
  Plant response rating, Soybean: 0
[8]; 250 g ai/ha
  Plant response rating, Soybean: 0
[9]; 31 g ai/ha
  Plant response rating, Pigweed: 55
[9]; 62 g ai/ha
  Plant response rating, Pigweed: 60
[9]; 125 g ai/ha
  Plant response rating, Pigweed: 80
[9]; 250 g ai/ha
  Plant response rating, Pigweed: 80
[10]; 62 g ai/ha
  Plant response rating, Wheat: 30
[10]; 125 g ai/ha
  Plant response rating, Wheat: 40
[10]; 250 g ai/ha
  Plant response rating, Wheat: 60
[11]; 31 g ai/ha
  Plant response rating, Lambsquarters: 55
[11]; 62 g ai/ha
  Plant response rating, Lambsquarters: 50
[11]; 125 g ai/ha
  Plant response rating, Lambsquarters: 65
[11]; 250 g ai/ha
  Plant response rating, Lambsquarters: 65
[12]; 31 g ai/ha
  Plant response rating, Oilseed Rape: 30
[12]; 62 g ai/ha
  Plant response rating, Oilseed Rape: 30
[12]; 125 g ai/ha
  Plant response rating, Oilseed Rape: 20
[12]; 250 g ai/ha
  Plant response rating, Oilseed Rape: 60
[13]; 31 g ai/ha
  Plant response rating, Johnsongrass: 0
[13]; 62 g ai/ha
  Plant response rating, Johnsongrass: 0
[13]; 125 g ai/ha
  Plant response rating, Johnsongrass: 20
[13]; 250 g ai/ha
  Plant response rating, Johnsongrass: 50
[14]; 31 g ai/ha
  Plant response rating, Morningglory: 0
[14]; 62 g ai/ha
  Plant response rating, Morningglory: 0
[14]; 125 g ai/ha
  Plant response rating, Morningglory: 20
[14]; 250 g ai/ha
  Plant response rating, Morningglory: 10
[15]; 62 g ai/ha
  Plant response rating, Ryegrass, Italian: 0
[15]; 125 g ai/ha
  Plant response rating, Ryegrass, Italian: 0
[15]; 250 g ai/ha
  Plant response rating, Ryegrass, Italian: 30
[16]; 31 g ai/ha
  Plant response rating, Nutsedge, Yellow: 0
[16]; 62 g ai/ha
  Plant response rating, Nutsedge, Yellow: 0
[16]; 125 g ai/ha
  Plant response rating, Nutsedge, Yellow: 0
[16]; 250 g ai/ha
  Plant response rating, Nutsedge, Yellow: 0
[17]; 62 g ai/ha
  Plant response rating, Velvetleaf: 0
[17]; 125 g ai/ha
  Plant response rating, Velvetleaf: 10
[17]; 250 g ai/ha
  Plant response rating, Velvetleaf: 50
